Data on 38 compounds can be found in patent US20260167656A1, “PHOSPHORAMIDATE COMPOUNDS AND USES THEREOF” (ALLORION THERAPEUTICS INC, priority 2022, published 2026).

Where only a bound is given, the exact number is not on record here.

The subject of experiment [1] is non-small cell lung cancer cell line H460. Kind of experiment: In vitro human cancer cell line cytotoxicity (proliferation) assay in H460, CellTiter-Glo, 72 hours. It counts as cell-based. The note with it: DMSO condition (no AKR1C3 inhibitor), read-out: CTG H460: Avg IC50 (nM) [Assay Condition: DMSO]. As to the method:
Biological Example 1. In Vitro Human Cancer Cell Line Cytotoxicity Assay
IC50 values in nanomolar reported here were derived from in vitro proliferation assay data in non-small cell lung cancer cell line H460.
(§1) Specifically, exponentially growing cells were seeded at density of 3×10^3 cells per well in 96-well plate and incubated at 37° C. in 5% CO2, 95% air and 100% relative humidity for 24 hours before adding compounds. Compounds were solubilized in 100% DMSO at 10 mM. Compounds were added to the plate using Tecan D300e® digital Dispenser. After drug addition, the plates were incubated for an additional 72 hours at 37° C. in 5% CO2, 95% air and 100% relative humidity. At the end of the incubation, cell viability was quantified with CellTiter-Glo® assay.

Experiment [2] shares this test system. Kind of experiment: H460 proliferation assay in the presence of 3 uM ASP9521 (AKR1C3 specific inhibitor). The note with it: H460 cells, CellTiter-Glo, 72 hours, in the presence of 3 uM ASP9521 added 4 hours prior to compounds; read-out: CTG H460: Avg IC50 (nM) [Assay Condition: ASP9521]. It counts as cell-based, human. On the procedure: as §1
To further confirm that compounds were activated by human AKR1C3, H460 proliferation assay were also performed in the presence of 3 uM […], an AKR1C3 specific inhibitor. ASP9521 were added to the plates 4 hours prior to the addition of compounds.

Where [3] appears, read: Homo sapiens, NCI-H460, H460 cells.
[4] abbreviates: Homo sapiens, NCI-H460, 72 h, H460 cells.

With `Cc1csc(-c2ccc(Oc3c([N+](=O)[O-])ccc4c3CCC4OP(=O)(N3CC3)N3CC3)cc2)n1` (stereo not shown) [Example 289], the half-inhibitory concentration (IC50) in experiment [1] (H460 cells) was under 10 nM; in experiment [2], 1090 nM.

Regarding `Cc1nsc(-c2cc(Oc3c([N+](=O)[O-])ccc4c3CC[C@@H]4OP(=O)(N3CC3)N3CC3)ccc2F)n1` [Example 359], the IC50 in experiment [1] (setting [3]) is under 10 nM; in experiment [2], 1470 nM.

Take `O=[N+]([O-])c1cc2c(cc1Oc1ccc(-c3cccnc3)cc1)C(OP(=O)(N1CC1)N1CC1)CC2` (stereo not shown) [Example 187]: the 50% inhibitory concentration (IC50) in experiment [1] (setting [4]) was 10 to 50 nM; in experiment [2], over 10000 nM.

Turning to `CC(OP(=O)(N1C[C@@H]1C)N1C[C@@H]1C)c1ccc([N+](=O)[O-])c(Oc2cccc(C(=O)N(C)C)c2)c1` (single isomer, unassigned) [Example 209], the half-inhibitory concentration (IC50) in experiment [1] (setting [4]) was under 10 nM; in experiment [2], 517 nM.

Take `O=[N+]([O-])c1ccc2c(c1Oc1ccc(F)c(-c3ncccn3)c1)CC[C@@H]2OP(=O)(N1CC1)N1CC1` [Example 327]: the IC50 is under 10 nM in experiment [1] (setting [4]) and 1710 nM in experiment [2].

With `CC(OP(=O)(N1C[C@@H]1C)N1C[C@@H]1C)c1ccc([N+](=O)[O-])c(Oc2ccc(C(=O)N(C)C)cc2)c1` (stereo partly shown) [Example 214], the IC50 was under 10 nM in experiment [1] (H460 cells) and 913 nM in experiment [2].

Take `O=C(c1cccc(Oc2c([N+](=O)[O-])ccc3c2CCC3OP(=O)(N2CC2)N2CC2)c1)N1CCOCC1` (single isomer, unassigned) [Example 126]: the IC50 in experiment [1] (H460 cells) is under 10 nM; in experiment [2], 159 nM.

With `CN(C)C(=O)c1cccc(Oc2cc3c(cc2[N+](=O)[O-])CCC3OP(=O)(N2CC2)N2CC2)c1` (stereo not shown) [Example 146], the IC50 was under 10 nM in experiment [1] (setting [4]) and 453 nM in experiment [2].

Regarding `O=[N+]([O-])c1ccc2c(c1Oc1cccc(OC3COC3)c1)CC[C@H]2OP(=O)(N1CC1)N1CC1` [Example 468], the half-maximal inhibitory concentration (IC50) is under 10 nM in experiment [1] (H460 cells) and 660 nM in experiment [2].

On to `Cn1cc(-c2ccc(Oc3c([N+](=O)[O-])ccc4c3CCC4OP(=O)(N3CC3)N3CC3)cc2)ccc1=O` (stereo not shown) [Example 61], for which the half-inhibitory concentration (IC50) in experiment [1] (H460 cells) was 10 to 50 nM; in experiment [2] it was 1010 nM.

Regarding `O=[N+]([O-])c1ccc2c(c1Oc1ccnc(C3CC3)c1)CCC2OP(=O)(N1CC1)N1CC1` (racemic) [Example 312], the values for the IC50 in experiment [1] (H460 cells) and in experiment [2] were under 10 nM and 312 nM, respectively.

In the case of `CN1CCc2ccc(Oc3cc4c(cc3[N+](=O)[O-])CCC4OP(=O)(N3CC3)N3CC3)cc2C1=O` (stereo not shown) [Example 166], the 50% inhibitory concentration (IC50) in experiment [1] (setting [4]) was 10 to 50 nM; in experiment [2], 976 nM.

With `C[C@H](OP(=O)(N1CC1)N1CC1)c1cc2cc(Oc3cccc(C(=O)N4CCC(F)(F)C4)c3)c([N+](=O)[O-])cc2o1` [Example 558], the IC50 was 10 to 50 nM in experiment [1] (H460 cells) and 3960 nM in experiment [2].

For the compound `O=C(c1cccc(Oc2c([N+](=O)[O-])ccc3c2CCC3OP(=O)(N2CC2)N2CC2)c1)N1CCOCC1` (single isomer, unassigned) [Example 125], the half-inhibitory concentration (IC50) is under 10 nM in experiment [1] (setting [4]) and 766 nM in experiment [2].

Turning to `O=[N+]([O-])c1ccc2c(c1Oc1cccc(-n3cc(C(F)F)cn3)c1)CC[C@@H]2OP(=O)(N1CC1)N1CC1` [Example 432], the concentration for half-maximal inhibition (IC50) in experiment [1] (setting [4]) was under 10 nM; in experiment [2] it was 4170 nM.

Regarding `O=C1OCCN1c1cccc(Oc2c([N+](=O)[O-])ccc3c2CCC3OP(=O)(N2CC2)N2CC2)c1` (stereo not shown) [Example 70], the half-maximal inhibitory concentration (IC50) in experiment [1] (setting [3]) was under 10 nM; in experiment [2] it was 380 nM.

`CNC(=O)c1ccc(Oc2cc3c(cc2[N+](=O)[O-])CCC3OP(=O)(N2CC2)N2CC2)cc1` (single isomer, unassigned) [Example 151]: the concentration for half-maximal inhibition (IC50) is under 10 nM in experiment [1] (H460 cells) and 306 nM in experiment [2].

As for `O=[N+]([O-])c1ccc2c(c1Oc1cccc(-c3cnn(C4CC4)c3)c1)CCC2OP(=O)(N1CC1)N1CC1` (stereo not shown) [Example 96], the IC50 in experiment [1] (H460 cells) is 10 to 50 nM; in experiment [2], 5270 nM.

In the case of `O=[N+]([O-])c1ccc2c(c1Oc1ccc(-c3ccccc3)cc1)CCC2OP(=O)(N1CC1)N1CC1` (single isomer, unassigned) [Example 20], the IC50 in experiment [1] (H460 cells) was under 10 nM; in experiment [2], 1190 nM.

Turning to `O=[N+]([O-])c1ccc2c(c1Oc1cccc(OC(F)F)c1)CC[C@H]2OP(=O)(N1CC1)N1CC1` [Example 458], the IC50 in experiment [1] (H460 cells) was under 10 nM; in experiment [2], 506 nM.

`O=[N+]([O-])c1ccc2c(c1Oc1cccc(-c3ncc(F)cn3)c1)CCC2OP(=O)(N1CC1)N1CC1` (stereo not shown) [Example 86]: the 50% inhibitory concentration (IC50) in experiment [1] (setting [4]) is 10 to 50 nM; in experiment [2], 1230 nM.

`O=[N+]([O-])c1ccc2c(c1Oc1ccc(-c3ccncc3)cc1)CC[C@H]2OP(=O)(N1CC1)N1CC1` [Example 274]: the half-inhibitory concentration (IC50) in experiment [1] (H460 cells) was 10 to 50 nM; in experiment [2], 7430 nM.

In the case of `O=C(c1cccc(Oc2c([N+](=O)[O-])ccc3c2CCC3OP(=O)(N2CC2)N2CC2)c1)N1C[C@H]2CC[C@@H](C1)O2` (stereo partly shown) [Example 250], the concentration for half-maximal inhibition (IC50) in experiment [1] (H460 cells) is under 10 nM; in experiment [2], 1220 nM.

As to `O=C1CCCCN1c1cccc(Oc2c([N+](=O)[O-])ccc3c2CCC3OP(=O)(N2CC2)N2CC2)c1` (racemic) [Example 404], in experiment [2], the IC50 worked out at 1020 nM.

On to `O=C1OCCN1c1cccc(Oc2c([N+](=O)[O-])ccc3c2CCC3OP(=O)(N2CC2)N2CC2)c1` (stereo not shown) [Example 407], for which the half-inhibitory concentration (IC50) in experiment [2] came out at 380 nM.

With `Cc1noc(-c2cccc(Oc3c([N+](=O)[O-])ccc4c3CCC4OP(=O)(N3CC3)N3CC3)c2)n1` (stereo not shown) [Example 304], the IC50 in experiment [2] turned out to be 2130 nM.

With `O=C(c1cccc(Oc2c([N+](=O)[O-])ccc3c2CCC3OP(=O)(N2CC2)N2CC2)c1)N1CCC(F)(F)C1` (stereo not shown) [Example 239], the IC50 in experiment [2] stood at 1060 nM.

As for `O=C(c1cccc(Oc2c([N+](=O)[O-])ccc3c2CCC3OP(=O)(N2CC2)N2CC2)c1)N1CCCC1` (stereo not shown) [Example 240], the IC50 in experiment [2] was found to be 1150 nM.

With `O=C(c1cccc(Oc2c([N+](=O)[O-])ccc3c2CCC3OP(=O)(N2CC2)N2CC2)c1)N1CCC(F)(F)C1` (stereo not shown) [Example 242], the IC50 in experiment [2] turned out to be 1270 nM.

Take `O=C1CCCN1c1cccc(Oc2c([N+](=O)[O-])ccc3c2CCC3OP(=O)(N2CC2)N2CC2)c1` (stereo not shown) [Example 413]: the IC50 in experiment [2] came out at 1180 nM.

For `Cn1cc(-c2ccc(Oc3cc4c(cc3[N+](=O)[O-])CCC4OP(=O)(N3CC3)N3CC3)cc2)cn1` (single isomer, unassigned) [Example 521], the IC50 in experiment [2] came to 1950 nM.

Consider `O=[N+]([O-])c1ccc2c(c1Oc1cccc(-c3ncccn3)c1)CCC2OP(=O)(N1CC1)N1CC1` (stereo not shown) [Example 301], for which the half-inhibitory concentration (IC50) in experiment [2] worked out at 3730 nM.

Consider `O=C1COCCN1c1cccc(Oc2c([N+](=O)[O-])ccc3c2CCC3OP(=O)(N2CC2)N2CC2)c1` (stereo not shown) [Example 411], for which, in experiment [1] (H460 cells), the concentration for half-maximal inhibition (IC50) lay in the range of 10 to 50 nM.

Take `O=C(c1cccc(Oc2c([N+](=O)[O-])ccc3c2CCC3OP(=O)(N2CC2)N2CC2)c1)N1CC(F)(F)C1` (stereo not shown) [Example 235]: the IC50 in experiment [2] is 717 nM.

Take `O=c1ccccn1-c1cccc(Oc2c([N+](=O)[O-])ccc3c2CCC3OP(=O)(N2CC2)N2CC2)c1` (racemic) [Example 406]: the 50% inhibitory concentration (IC50) in experiment [2] was 1320 nM.

Take `O=C1COCCN1c1cccc(Oc2c([N+](=O)[O-])ccc3c2CCC3OP(=O)(N2CC2)N2CC2)c1` (racemic) [Example 405]: the concentration for half-maximal inhibition (IC50) in experiment [2] came to 871 nM.

On to `O=C(c1cccc(Oc2c([N+](=O)[O-])ccc3c2CCC3OP(=O)(N2CC2)N2CC2)c1)N1CCC1` (stereo not shown) [Example 246], for which, in experiment [2], the concentration for half-maximal inhibition (IC50) was determined as 522 nM.

As for `O=C(c1cccc(Oc2c([N+](=O)[O-])ccc3c2CCC3OP(=O)(N2CC2)N2CC2)c1)N1CCC(F)(F)CC1` (stereo not shown) [Example 244], the half-inhibitory concentration (IC50) in experiment [2] was 834 nM.
